Laboratory results published in patent EP0345955B1, “Anti-microbial composition and use thereof” (IMPERIAL CHEMICAL INDUSTRIES PLC, priority 1988, dated 1989).

Test system: mixed fungal spore suspension of Alternaria alternata, Aureobasidium pullulans, Cladosporium herbarum, Phoma violacea, and Stemphylium dendriticum
Experiment: Evaluation as a paint film fungicide (acrylic emulsion paint on wooden test pieces, spray inoculated)
Format: cell-based
Details: 25°C, four weeks, two scores per cell; for Fungal Growth L2: L2 (leached for two days); for Fungal Growth UL: UL (test pieces not leached); for Fungal Growth L1: L1 (leached with water spray for one day)
Method: In the following examples, the compositions obtained were subjected to microbiological evaluation as paint film fungicides. The compositions were also tested for anti-algal properties. The microbiological testing was effected as follows: The products were tested for activity against fungi which were one or more of Alternaria alternata, Aureobasidum pullulans, Cladosporium herbarum, Phoma violacea and Stemphylium dendriticum.
The compositions to be tested were obtained as described in Examples 1 to 6 and the Comparative Examples. The compositions were added as a solid blend to samples of an exterior acrylic emulsion paint (based on Revacryl 1A latex at pH 9) in glass bottles and mixed to give final active ingredient levels in the paint of 1.0, 0.5 and 0.25% w/v.
The bottles containing paint plus biocide composition were sealed and stored at 40°C for three days.
Small wooden test pieces were prepared for each paint composition by priming and then brushing on two full even coats.
One set of the coated test pieces was stored at ambient temperature in the dark. A further set of coated test pieces was placed in a leaching device in which the test pieces were sprayed with water for one day and the test pieces were removed from the leaching device and dried. Yet a further set of coated test pieces was subjected to leaching for two days.
The coated test pieces were then transferred to a high humidity chamber. Each test piece was then spray inoculated with a mixed fungal spore suspension of Alternaria alternata, Aureobasidium pullulans, Cladosporium herbarum, Phoma violacea, and Stemphylium dendriticum.
Incubation was carried out at 25°C for four weeks. After this period the paint films were examined for fungal growth by naked eye and by stereo optical microscope.
The compositions of Examples 1 to 6 and the Comparative Examples were evaluated as paint film fungicides using the technique described previously herein. For comparative purposes paints containing only tetrachloroisophthalonitrile (NC); 3-(3,4-dichlorophenyl)-1,1-dimethylurea (DU); 2,3,5,6-thetrachloro-4-(methylsulphonyl) pyridine (DS); di-iodomethyl-4-methylphenylsulphone (AM); or zinc oxide (ZO) were also evaluated under the same conditions.

[1] = 0.25% w/v active ingredient in paint
[2] = 0.5% w/v active ingredient in paint
[3] = 1.0% w/v active ingredient in paint

For `CS(=O)(=O)c1c(Cl)c(Cl)nc(Cl)c1Cl` [DS, 2,3,5,6-tetrachloro-4-(methylsulphonyl)pyridine], the “Fungal Growth L2” value [1] was 5,4, the “Fungal Growth UL” value [1] was 2,2 and the “Fungal Growth L2” value [2] was 2,3. The “Fungal Growth UL” value [2] was 1,1, the “Fungal Growth L2” value [3] was 1,0 and the “Fungal Growth UL” value [3] was 0.1.

For `CN(C)C(=O)Nc1ccc(Cl)c(Cl)c1` [DU, 3-(3,4-dichlorophenyl)-1,1-dimethylurea], the “Fungal Growth L2” value [3] was 5,5 and the “Fungal Growth UL” value [3] was 5,5.

`N#Cc1c(Cl)c(Cl)c(Cl)c(C#N)c1Cl` [NC, tetrachloroisophthalonitrile] was tested, and the “Fungal Growth L1” value [1] was 4,4, the “Fungal Growth L2” value [1] was 5,5 and the “Fungal Growth UL” value [1] was 3,4. For the same molecule, the “Fungal Growth L1” value [2] was 4,5, the “Fungal Growth L2” value [2] was 3,5 and the “Fungal Growth UL” value [2] was 2,3. The “Fungal Growth L1” value [3] was 2,5, the “Fungal Growth L2” value [3] was 4,5 and the “Fungal Growth UL” value [3] was 0,0.

`Cc1ccc(S(=O)(=O)C(I)I)cc1` [AM, di-iodomethyl-4-methylphenylsulphone] was tested, and the “Fungal Growth L2” value [1] was 4,4, the “Fungal Growth UL” value [1] was 0,0 and the “Fungal Growth L2” value [2] was 1,2. For the same molecule, the “Fungal Growth UL” value [2] was 0,0, the “Fungal Growth L2” value [3] was 0,0 and the “Fungal Growth UL” value [3] was 0,0.
